# Source: PMC3698108, “Structural and bioactive studies of terpenes and cyclopeptides from the Genus Rubia” (Chemistry Central Journal, 2013)
# “Also recorded” adds a separate entry of the source.
# Columns and labels:
# A549, Hela and SMMC-7721 = test system: A549, Hela and SMMC-7721; set-up: method as in PMID 21973054; conditions: data not very satisfactory; cited from earlier work
# P-388 = conditions: cited from earlier work; for cytotoxicity against P-388 IC50: moderate cytotoxicity
# P388 = conditions: cited from earlier work
# platelet aggregation = test system: platelet aggregation; set-up: method as in PMID 12350148; conditions: cited from earlier work
# [1] = test system: RAW 264.7 murine macrophages; conditions: cited from earlier work
# [2] = test system: NO production from LPS-activated macrophages; set-up: method as in PMID 12762798; conditions: cited from earlier work
# iNOS = test system: iNOS; set-up: method as in PMID 12808242; conditions: cited from earlier work
# HL-60 cells = test system: HL-60 cells; set-up: method as in doi:10.1016/j.phytol.2012.02.014; conditions: much weaker than RA-XXIV and RA-VII; cited from earlier work
# HT-29 = conditions: cited from earlier work
# [3] = test system: A549, SK-OV-3, SK-MEL-2, MES-SA and HCT-15; set-up: method as in PMID 15089031; conditions: cited from earlier work
# 11 cancer cell lines = conditions: SRB assay; cited from earlier work
compound,measurement,setting,value
"CC(=O)O[C@@H]1C[C@@H](C(C)C)[C@]2(CO)CC[C@@]3(C)[C@H]4C(=CC[C@]3(C)[C@@H]12)[C@@]1(C)C=CC(=O)C(C)(C)[C@@H]1C[C@@H]4O [Compound 58, Rubiarbonone E 19-acetate]","inhibition on A549, Hela and SMMC-7721","A549, Hela and SMMC-7721",had inhibition
RA- XVIII [Compound 85],cytotoxicity against P-388,P-388; P-388,0.012 µg/mL
"COc1ccc(C[C@H]2C(=O)N[C@@H](C)C(=O)N(C)[C@H]3Cc4ccc(cc4)Oc4cc(ccc4OC)C[C@@H](C(=O)N[C@H](C)C(=O)N[C@@H](C)C(=O)N2C)N(C)C3=O)cc1 [Compound 104, RA-700]",activities against P388,P388,medium activities
"CC(C)[C@@H]1C[C@@H](O)[C@H]2[C@@]1(C)CC[C@@]1(C)[C@H]3C(=CC[C@]21C)[C@@]1(C)CC[C@H](O)C(C)(C)[C@@H]1C[C@@H]3O [Compound 17, Rubiarbonol B]",inhibition against arachidonic acid-induced and collagen-induced platelet aggregation,"platelet aggregation; at 150 μM, among compounds 16, 17 and 25",most potent inhibition
RY-I [Compound 100],activity against NO production in LPS,[1],exhibited activity
RA-X [Compound 77],antitumour effect on P388,P388,strong antitumour effect
"COc1ccc(C[C@H]2C(=O)N[C@@H](C)C(=O)N(C)[C@H]3Cc4ccc(cc4)Oc4cc(ccc4O)C[C@@H](C(=O)N[C@H](C)C(=O)N[C@@H](CCC(N)=O)C(=O)N2C)N(C)C3=O)cc1 [Compound 91, RA- XXIV]",activity against NO production in LPS,[1],exhibited activity
same,cytotoxicity against P-388 IC50,P-388; P-388,480 µg/mL
"CC(=O)OC[C@@]12CC[C@@]3(C)[C@H]4C(=CC[C@]3(C)[C@H]1[C@H](O)C[C@H]2C(C)C)[C@@]1(C)C[C@@H](O)[C@H](O)C(C)(C)[C@@H]1C[C@@H]4O [Compound 43, Rubianol-d]",efficacy of NO production inhibition compared with L-NMMA,[2],equivalent to L-NMMA
same,inhibition of NO production,[2],exhibited the inhibition
Rubiarbonone A [Compound 25],effect on platelet aggregation at the high doses,platelet aggregation,promoted platelet aggregation
same,effect on platelet aggregation at the lower concentrations,platelet aggregation,possessed antiplatelet aggregation activity
RA-XII [Compound 79],antitumor activity against P388,P388,potent antitumor activity
same,effects on iNOS induction,iNOS,potent effects
same,activity against NO production in LPS,[1],exhibited activity
O-seco-RA-XXIV [Compound 109],cytotoxic effects on HL-60 cells,HL-60 cells,exhibited cytotoxic effects
RA- XXII [Compound 89],relative cytotoxicity against P388,P-388; RA-VII (74) as reference,less cytotoxic than 88
RA-IX [Compound 76],antitumour effect on P388,P388,almost no antitumour activities
Rubianol-e [Compound 44],efficacy of NO production inhibition compared with L-NMMA,[2],equivalent to L-NMMA
same,inhibition of NO production,[2],exhibited the inhibition
"CC(=O)OC[C@@]12CC[C@@]3(C)[C@H]4C(=CC[C@]3(C)[C@H]1[C@H](O)C[C@H]2C(C)C)[C@@]1(C)CC[C@H](O)C(C)(C)[C@@H]1C[C@@H]4O [Compound 42, Rubianol-c]",inhibition of NO production,[2],inhibit NO production; also recorded: inhibitory activities on NO production
"CC(C)[C@@H]1CC=C2[C@@]1(C)CC[C@@]1(C)[C@H]3C(=CC[C@]21C)[C@@]1(C)CC[C@H](O)C(C)(C)[C@@H]1C[C@@H]3O [Compound 55, Rubiyunnanol B]","inhibition on A549, Hela and SMMC-7721","A549, Hela and SMMC-7721",had inhibition
same,melting point,,247 to 248 °C
RC-18 [Compound 105],activities against P388,P388,medium activities
"CC(=O)OC[C@@]12CC[C@@]3(C)[C@H]4C(=CC[C@]3(C)[C@H]1[C@H](O)C[C@H]2C(C)C)[C@@]1(C)CC[C@H](O[C@@H]2O[C@H](CO[C@@H]3O[C@H](CO)[C@@H](O)[C@H](O)[C@H]3O)[C@@H](O)[C@H](O)[C@H]2O)C(C)(C)[C@@H]1C[C@@H]4O [Compound 62, Rubiarboside G 28-acetate]","inhibition on A549, Hela and SMMC-7721","A549, Hela and SMMC-7721",had inhibition
"CC(C)[C@@H]1C[C@@H](O)[C@H]2[C@@]1(CO)CC[C@@]1(C)[C@H]3C(=CC[C@]21C)[C@@]1(C)CC[C@H](O)C(C)(C)[C@@H]1C[C@@H]3O [Compound 16, Rubiarbonol A]",cytotoxicity against HT-29,HT-29,relatively strong cytotoxicity
same,melting point,,260 to 263 °C
same,effect on platelet aggregation at the high doses,platelet aggregation,promoted platelet aggregation
same,effect on platelet aggregation at the lower concentrations,platelet aggregation,possessed antiplatelet aggregation activity
same,inhibition of NO production,[2],inhibit NO production; also recorded: inhibitory activities on NO production
"CC(=O)OC1CCC2(C)C(CCC3(C)C2CC=C2C4CC(C)(C)CCC4(C=O)CCC23C)C1(C)C (stereo not drawn) [Compound 15, Oleanolic aldehyde acetate]","bioactivities against A549, SK-OV-3, SK-MEL-2, MES-SA and HCT-15",[3],potent bioactivities
Rubiyunnanin B [Compound 93],cytotoxicities against the 11 cancer cell lines,11 cancer cell lines,moderate cytotoxicities
"COc1ccc(C[C@H]2C(=O)N[C@@H](C)C(=O)N(C)[C@H]3Cc4ccc(cc4)Oc4cc(ccc4OC)C[C@@H](C(=O)N[C@H](C)C(=O)N[C@@H](CCC(N)=O)C(=O)N2C)N(C)C3=O)cc1 [Compound 90, RA- XXIII]",cytotoxicity against P-388 IC50,P-388; P-388,160 µg/mL
COC(=O)CC[C@@H]1NC(=O)[C@@H](C)NC(=O)[C@@H]2Cc3ccc(O)c(c3)Oc3ccc(cc3)C[C@@H](C(=O)N2C)N(C)C(=O)[C@H](C)NC(=O)[C@H](Cc2ccc(OC)cc2)N(C)C1=O,melting point,,253 to 254 °C
"CC(C)[C@@H]1C[C@@H](O)[C@H]2[C@@]1(C)CC[C@@]1(C)C3=CC[C@H]4C(C)(C)[C@@H](O)CC[C@]4(C)C3=CC[C@]21C [Compound 54, Rubiyunnanol A]","inhibition on A549, Hela and SMMC-7721","A549, Hela and SMMC-7721",had inhibition
"CC(C)[C@@H]1C[C@@H](O)[C@H]2[C@@]1(CO)CC[C@@]1(C)[C@H]3C(=CC[C@]21C)[C@@]1(C)C[C@@H](O)[C@H](O)C(C)(C)[C@@H]1C[C@@H]3O [Compound 21, Rubiarbonol F]",inhibition of NO production,[2],inhibit NO production; also recorded: inhibitory activities on NO production
"CC(=O)OC[C@@]12CC[C@@]3(C)[C@H]4C(=CC[C@]3(C)[C@H]1[C@H](O)C[C@H]2C(C)C)[C@@]1(C)CCC(=O)C(C)(C)[C@@H]1C[C@@H]4O [Compound 27, Rubiarbonone C]",melting point,,98 to 100 °C
same,inhibition of NO production,[2],inhibit NO production; also recorded: inhibitory activities on NO production
RA-I [Compound 66],activity against NO production in LPS,[1],exhibited activity
